The numbers were not newly measured in patent US11433083B2, “High-strength testosterone undecanoate compositions” (priority 2010, dated 2022), which cites them from elsewhere.

Each structure is given as a SMILES string.

`CCCCCCCCCCC(=O)O[C@H]1CC[C@H]2[C@@H]3CCC4=CC(=O)CC[C@]4(C)[C@H]3CC[C@]12C` [Testosterone undecanoate, testosterone undecanoate]: the water solubility is less than 0.3 ng/mL.
